# Test results: the supplement of paper PMC10307832
# Experiments:
# Assay in all cases: relative viability (nuclei count vs DMSO), 5 days (fraction); higher = more cells survive
# A549 = test system: A549
# How it was run: (§1)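 Relative viability equals treated-well nuclei counts divided by vehicle-well nuclei counts. Counts came from 4× images of lung cancer cell lines grown in 1536-well plates for 5 days after pin-tool dosing on the day after seeding. Dosing used one drug alone or a fixed anchor-drug dose plus five library-drug doses (not always all listed) in √10 steps, and values are medians of duplicate plates.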
# Calu-6 = test system: Calu-6
# How it was run: as §1
# EBC-1 = test system: EBC-1
# How it was run: as §1
# IA-LM = test system: IA-LM
# How it was run: as §1
# NCI-H1299 = test system: NCI-H1299
# How it was run: as §1
# NCI-H1703 = test system: NCI-H1703
# How it was run: as §1
# NCI-H2009 = test system: NCI-H2009
# How it was run: as §1
# NCI-H460 = test system: NCI-H460
# How it was run: as §1
# NCI-H661 = test system: NCI-H661
# How it was run: as §1
smiles,measurement,setting,value
O=C(O)c1ccc(-c2c[nH]c3ncc(-c4ccccc4)cc23)cc1C1CCCC1 + CS(=O)(=O)CCNCc1ccc(-c2ccc3ncnc(Nc4ccc(OCc5cccc(F)c5)c(Cl)c4)c3c2)o1 [Lapatinib] (partner 2 µM),relative viability,A549; first compound 0.04 µM,1.01
same,relative viability,A549; first compound 0.1265 µM,0.985
same,relative viability,A549; first compound 0.4 µM,0.899
same,relative viability,A549; first compound 1.265 µM,0.837
same,relative viability,Calu-6; first compound 0.04 µM,1.02
same,relative viability,Calu-6; first compound 0.1265 µM,1.09
same,relative viability,Calu-6; first compound 0.4 µM,0.984
same,relative viability,Calu-6; first compound 1.265 µM,0.78
same,relative viability,EBC-1; first compound 0.04 µM,0.224
same,relative viability,EBC-1; first compound 0.1265 µM,0.215
same,relative viability,EBC-1; first compound 0.4 µM,0.227
same,relative viability,EBC-1; first compound 1.265 µM,0.242
same,relative viability,IA-LM; first compound 0.04 µM,0.913
same,relative viability,IA-LM; first compound 0.1265 µM,1.03
same,relative viability,IA-LM; first compound 0.4 µM,0.974
same,relative viability,IA-LM; first compound 1.265 µM,0.782
same,relative viability,NCI-H1299; first compound 0.04 µM,0.945
same,relative viability,NCI-H1299; first compound 0.1265 µM,1
same,relative viability,NCI-H1299; first compound 0.4 µM,0.938
same,relative viability,NCI-H1299; first compound 1.265 µM,0.829
same,relative viability,NCI-H1703; first compound 0.04 µM,1.11
same,relative viability,NCI-H1703; first compound 0.1265 µM,1.44
same,relative viability,NCI-H1703; first compound 0.4 µM,1.06
same,relative viability,NCI-H1703; first compound 1.265 µM,0.929
same,relative viability,NCI-H2009; first compound 0.04 µM,1.06
same,relative viability,NCI-H2009; first compound 0.1265 µM,0.922
same,relative viability,NCI-H2009; first compound 0.4 µM,0.882
same,relative viability,NCI-H2009; first compound 1.265 µM,0.848
same,relative viability,NCI-H460; first compound 0.04 µM,0.897
same,relative viability,NCI-H460; first compound 0.1265 µM,1.03
same,relative viability,NCI-H460; first compound 0.4 µM,0.801
same,relative viability,NCI-H460; first compound 1.265 µM,0.782
same,relative viability,NCI-H661; first compound 0.04 µM,0.455
same,relative viability,NCI-H661; first compound 0.1265 µM,0.633
same,relative viability,NCI-H661; first compound 0.4 µM,0.515
same,relative viability,NCI-H661; first compound 1.265 µM,0.458
O=C(O)c1ccc(-c2c[nH]c3ncc(-c4ccccc4)cc23)cc1C1CCCC1 + CS(=O)(=O)N1CCN(Cc2cc3nc(-c4cccc5[nH]ncc45)nc(N4CCOCC4)c3s2)CC1 [Pictilisib] (partner 1 µM),relative viability,A549; first compound 0.04 µM,0.508
same,relative viability,A549; first compound 0.1265 µM,0.537
same,relative viability,A549; first compound 0.4 µM,0.504
same,relative viability,A549; first compound 1.265 µM,0.291
same,relative viability,Calu-6; first compound 0.04 µM,0.896
same,relative viability,Calu-6; first compound 0.1265 µM,1.05
same,relative viability,Calu-6; first compound 0.4 µM,0.822
same,relative viability,Calu-6; first compound 1.265 µM,0.667
same,relative viability,EBC-1; first compound 0.04 µM,0.43
same,relative viability,EBC-1; first compound 0.1265 µM,0.371
same,relative viability,EBC-1; first compound 0.4 µM,0.345
same,relative viability,EBC-1; first compound 1.265 µM,0.327
same,relative viability,IA-LM; first compound 0.04 µM,0.437
same,relative viability,IA-LM; first compound 0.1265 µM,0.363
same,relative viability,IA-LM; first compound 0.4 µM,0.344
same,relative viability,IA-LM; first compound 1.265 µM,0.402
same,relative viability,NCI-H1299; first compound 0.04 µM,0.832
same,relative viability,NCI-H1299; first compound 0.1265 µM,0.809
same,relative viability,NCI-H1299; first compound 0.4 µM,0.69
same,relative viability,NCI-H1299; first compound 1.265 µM,0.584
same,relative viability,NCI-H1703; first compound 0.04 µM,0.262
same,relative viability,NCI-H1703; first compound 0.1265 µM,0.298
same,relative viability,NCI-H1703; first compound 0.4 µM,0.272
same,relative viability,NCI-H1703; first compound 1.265 µM,0.224
same,relative viability,NCI-H2009; first compound 0.04 µM,0.793
same,relative viability,NCI-H2009; first compound 0.1265 µM,0.836
same,relative viability,NCI-H2009; first compound 0.4 µM,0.788
same,relative viability,NCI-H2009; first compound 1.265 µM,0.586
same,relative viability,NCI-H460; first compound 0.04 µM,0.409
same,relative viability,NCI-H460; first compound 0.1265 µM,0.574
same,relative viability,NCI-H460; first compound 0.4 µM,0.38
same,relative viability,NCI-H460; first compound 1.265 µM,0.365
same,relative viability,NCI-H661; first compound 0.1265 µM,0.464
same,relative viability,NCI-H661; first compound 0.4 µM,0.508
same,relative viability,NCI-H661; first compound 1.265 µM,0.424
CC1(C)CCC(c2ccc(Cl)cc2)=C(CN2CCN(c3ccc(C(=O)NS(=O)(=O)c4ccc(N[C@H](CCN5CCOCC5)CSc5ccccc5)c(S(=O)(=O)C(F)(F)F)c4)cc3)CC2)C1 [Navitoclax] + CS(=O)(=O)N1CCN(Cc2cc3nc(-c4cccc5[nH]ncc45)nc(N4CCOCC4)c3s2)CC1 [Pictilisib] (partner 1 µM),relative viability,A549; first compound 0.005 µM,0.418
same,relative viability,A549; first compound 0.01581 µM,0.425
same,relative viability,A549; first compound 0.05 µM,0.685
same,relative viability,A549; first compound 0.1581 µM,0.51
same,relative viability,A549; first compound 0.5 µM,0.504
same,relative viability,Calu-6; first compound 0.005 µM,0.891
same,relative viability,Calu-6; first compound 0.01581 µM,1.03
same,relative viability,Calu-6; first compound 0.05 µM,1.01
same,relative viability,Calu-6; first compound 0.1581 µM,0.775
same,relative viability,Calu-6; first compound 0.5 µM,0.752
same,relative viability,EBC-1; first compound 0.005 µM,0.411
same,relative viability,EBC-1; first compound 0.01581 µM,0.378
same,relative viability,EBC-1; first compound 0.05 µM,0.448
same,relative viability,EBC-1; first compound 0.1581 µM,0.575
same,relative viability,EBC-1; first compound 0.5 µM,0.138
same,relative viability,IA-LM; first compound 0.005 µM,0.466
same,relative viability,IA-LM; first compound 0.01581 µM,0.321
same,relative viability,IA-LM; first compound 0.05 µM,0.404
same,relative viability,IA-LM; first compound 0.1581 µM,0.457
same,relative viability,IA-LM; first compound 0.5 µM,0.292
same,relative viability,NCI-H1299; first compound 0.005 µM,0.717
same,relative viability,NCI-H1299; first compound 0.01581 µM,0.943
same,relative viability,NCI-H1299; first compound 0.05 µM,0.874
same,relative viability,NCI-H1299; first compound 0.1581 µM,0.822
same,relative viability,NCI-H1299; first compound 0.5 µM,0.819
same,relative viability,NCI-H1703; first compound 0.005 µM,0.244
same,relative viability,NCI-H1703; first compound 0.01581 µM,0.28
same,relative viability,NCI-H1703; first compound 0.05 µM,0.263
same,relative viability,NCI-H1703; first compound 0.1581 µM,0.239
same,relative viability,NCI-H1703; first compound 0.5 µM,0.245
same,relative viability,NCI-H2009; first compound 0.005 µM,0.771
same,relative viability,NCI-H2009; first compound 0.01581 µM,1.09
same,relative viability,NCI-H2009; first compound 0.05 µM,0.961
same,relative viability,NCI-H2009; first compound 0.1581 µM,0.898
same,relative viability,NCI-H2009; first compound 0.5 µM,0.979
same,relative viability,NCI-H460; first compound 0.005 µM,0.348
same,relative viability,NCI-H460; first compound 0.01581 µM,0.419
same,relative viability,NCI-H460; first compound 0.1581 µM,0.326
same,relative viability,NCI-H460; first compound 0.5 µM,0.334
same,relative viability,NCI-H661; first compound 0.005 µM,0.48
same,relative viability,NCI-H661; first compound 0.01581 µM,0.443
same,relative viability,NCI-H661; first compound 0.05 µM,0.379
same,relative viability,NCI-H661; first compound 0.1581 µM,0.406
same,relative viability,NCI-H661; first compound 0.5 µM,0.465
